For six molecules, Ki and melting point results are on record in patent US8188284B2, “2-aminoquinolines” (Hoffman-La Roche Inc., priority 2008, dated 2012).

Molecules are shown by their SMILES.

The target of data set [1] is T1, recombinant human 5-HT5A receptor (Homo sapiens, UniProt P47898).
T1 construct: expressed in transfected cells; host or cells: HEK-EBNA (Human Embryonic Kidney-EBNA) cells, transient cDNA expression, membranes
The data set can be described thus: [3H]LSD radioligand binding assay. To be noted: [3H]LSD (approximately 1 nM), membranes from HEK-EBNA cells transiently expressing 5-HT5A receptors; Ki calculated from IC50 using the Cheng-Prussoff equation; read-out: Ki/nM 5-HT5A. The method, then:
A [^3H]LSD radioligand binding assay was used to determine the affinity of the compounds for the recombinant human 5-HT5A receptor, in membranes from transiently (cDNA) expressed 5-HT5A receptors in Human Embryonic Kidney-EBNA (HEK-EBNA) cells. Assay buffer consisted of Tris (50 mM) buffer containing 1 mM EGTA, 10 mM MgCl2 (pH 7.4) and 10 μM pargyline. The binding assay was carried out in 96-well-plates in the presence of [^3H]LSD (approximately 1 nM), approximately 2 μg/well of membrane protein, and 0.5 mg of Ysi-poly-1-lysine SPA beads in a final volume of 200 μl of buffer. Non-specific binding was defined using methiothepin 2 μM. Compounds were tested at 10 concentrations. All assays were conducted in duplicate and repeated at least two times. Assay plates were incubated for 120 min at room temperature before centrifugation. Bound ligand was determined using a Packard Topcount scintillation counter. IC50 values were calculated using a non-linear curve fitting program and Ki values calculated using the Cheng-Prussoff equation.

T1 sequence (P47898 whole entry): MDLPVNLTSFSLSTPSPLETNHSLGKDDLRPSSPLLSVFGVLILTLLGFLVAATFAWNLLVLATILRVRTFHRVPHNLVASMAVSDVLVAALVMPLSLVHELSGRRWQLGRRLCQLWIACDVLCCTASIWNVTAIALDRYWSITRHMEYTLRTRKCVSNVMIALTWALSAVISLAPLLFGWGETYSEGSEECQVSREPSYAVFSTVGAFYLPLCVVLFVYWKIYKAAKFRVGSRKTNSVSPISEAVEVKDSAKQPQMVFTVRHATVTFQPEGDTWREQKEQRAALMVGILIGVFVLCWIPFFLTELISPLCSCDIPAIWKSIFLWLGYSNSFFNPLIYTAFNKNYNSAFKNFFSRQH

On to `Cc1nnc(Nc2ccc3nc(N[C@@H]4CCc5ccccc54)ccc3c2)o1` [Example 77, N^2—(R)-Indan-1-yl-N^6-(5-methyl-[1,3,4]oxadiazol-2-yl)-quinoline-2,6-diamine], for which the melting point was 129 °C. Besides, the Ki in data set [1] is 21.2 nM.

With `COc1cccc2c1C(Nc1ccc3cc(Nc4nc(C)cc(C)n4)ccc3n1)CC2` (racemic) [Example 93, rac-N^6-(4,6-Dimethyl-pyrimidin-2-yl)-N^2-(7-methoxy-indan-1-yl)-quinoline-2,6-diamine], the melting point worked out at 150 °C. Also, in data set [1], the Ki is 3.4 nM.

For the molecule `CC(C)(C)n1nnc(Nc2ccc3nc(N[C@@H]4CCc5ccccc54)ccc3c2)n1` [Example 75, N^6-(2-tert-Butyl-2H-tetrazol-5-yl)-N^2—(R)-indan-1-yl-quinoline-2,6-diamine], the melting point was 146 °C. Also, the Ki in data set [1] was 25.9 nM.

In the case of `Cc1cc(C)nc(Nc2ccc3nc(N[C@@H]4CCc5ccccc54)ccc3c2)n1` [Example 67, N^6-(4,6-Dimethyl-pyrimidin-2-yl)-N^2—(R)-indan-1-yl-quinoline-2,6-diamine], the melting point was determined as 88 °C. In data set [1], the Ki is 15.7 nM.

The molecule `COc1cccc2c1C(Nc1ccc3cc(Nc4cc(C)on4)ccc3n1)CC2` (racemic) [Example 95, rac-N^2-(7-Methoxy-indan-1-yl)-N^6-(5-methyl-isoxazol-3-yl)-quinoline-2,6-diamine] gave a melting point of 109 °C. Moreover, the Ki in data set [1] is 3.5 nM.

Molecule `Cc1cccc(Nc2ccc3nc(N[C@@H]4CCc5ccccc54)ccc3c2)n1` [Example 72, N^2—(R)-Indan-1-yl-N^6-(6-methyl-pyridin-2-yl)-quinoline-2,6-diamine] yielded a melting point of 72 °C. The Ki in data set [1] is 7.7 nM.
